One may read the Inhibition as the change of the read-out against control, counted positive when it falls. Higher therefore signals a strong effect. The inhibition is the drop in the measured response relative to a control, in per cent. Read a low inhibition as a weak effect.

Our source for the Incorporation, Inhibition and inhibition values is ChEMBL document CHEMBL1123438, “Queuine analogues. Their synthesis and inhibition of growth of mouse L5178Y cells in vitro” (1986).

In experiment [1] the target is T1, Queuine tRNA-ribosyltransferase catalytic subunit 1 (Rattus norvegicus) (UniProt Q4QR99).
T1 sequence (whole entry): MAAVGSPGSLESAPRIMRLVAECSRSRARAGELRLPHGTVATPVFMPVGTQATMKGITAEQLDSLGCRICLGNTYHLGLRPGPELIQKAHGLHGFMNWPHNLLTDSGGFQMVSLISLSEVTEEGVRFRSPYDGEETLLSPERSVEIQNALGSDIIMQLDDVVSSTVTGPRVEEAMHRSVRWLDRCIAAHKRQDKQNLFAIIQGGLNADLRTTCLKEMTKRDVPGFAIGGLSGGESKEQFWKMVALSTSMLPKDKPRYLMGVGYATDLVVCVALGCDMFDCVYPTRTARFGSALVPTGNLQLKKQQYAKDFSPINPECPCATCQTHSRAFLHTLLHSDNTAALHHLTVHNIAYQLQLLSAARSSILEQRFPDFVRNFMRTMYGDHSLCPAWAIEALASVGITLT
In words: Ability to act as substrate of rat liver tRNA-Guanine Transglycosylase.

For experiment [2], the system named is L5178Y. The experiment is described as follows: Inhibition of L5178Y cell growth at 10 ug/mL.
Experiment [3] has as its system L5178Y. The experiment is described as follows: Inhibition of L5178Y cell growth at 100 ug/mL.
Experiment [4] has as its system L5178Y. The experiment is described as follows: Compound was tested for inhibition of growth of L5178Y cells at concentration of 1 ug/mL. Type of experiment: functional. The following applies: Mus musculus.

Turning to `Nc1nc(O)c2c(CNCC(O)CO)c[nH]c2n1` (stereo unspecified), the Incorporation in experiment [1] turned out to be 88%. Besides, the Inhibition in experiment [2] is under 10%; in experiment [3] it was 31%.

In turn, `NCc1c[nH]c2nc(N)nc(S)c12` came in with an Incorporation in experiment [1] of 50%. Besides, the inhibition at 1 µg/mL in experiment [4] is under 10%. The results for the Inhibition in experiment [2] and in experiment [3] were 36% and 77%, respectively.

With `CC1(C)OC2C(NCc3c[nH]c4nc(N)nc(O)c34)C=C[C@H]2O1` (stereo partly specified), in experiment [1], the Incorporation came out at 100%. In addition, the Inhibition in experiment [2] is on record as under 10%; in experiment [3] it was 21%.

Take `Nc1nc(O)c2c(CNc3ccccc3O)c[nH]c2n1`: the Incorporation in experiment [1] came to 76%. In experiment [4], this compound showed an inhibition at 1 µg/mL of 25%. Also, the results for the Inhibition in experiment [2] and in experiment [3] were 53% and 90%, respectively.

For the compound `N/C(=N/Cc1c[nH]c2nc(N)nc(O)c12)c1cc(I)c(O)c(I)c1`, the Incorporation in experiment [1] came to 48%. In addition, the Inhibition in experiment [2] is 31%; in experiment [3], 89%.

Take `CC1(C)OC2C(NCc3c[nH]c4nc(N)nc(S)c34)C=C[C@@H]2O1` (stereo partly specified): the Incorporation in experiment [1] worked out at 123%. In experiment [4], this compound displayed an inhibition at 1 µg/mL of 46%. Besides, the Inhibition is given as 87% in experiment [2] and 94% in experiment [3].

`Nc1nc(O)c2c(CNC3C=C[C@@H](O)[C@H]3O)c[nH]c2n1` (stereo partly specified) gave an Incorporation in experiment [1] of 100%. For the same compound, the Inhibition is on record as under 10% in experiment [2] and 20% in experiment [3].

In experiment [1], `Nc1nc(O)c2c(CNCCOCCO)c[nH]c2n1` had an Incorporation of 98%. The values for the Inhibition in experiment [2] and in experiment [3] were under 10% and 9%, respectively.

In experiment [1], `Nc1nc(O)c2c(CNC3C=C[C@H](O)[C@@H]3O)c[nH]c2n1` (stereo partly specified) displayed an Incorporation of 70%. Also, the results for the Inhibition in experiment [2] and in experiment [3] were under 10% and 53%, respectively.

For the compound `CC(C)C(=O)NCc1c[nH]c2nc(N)nc(O)c12`, the Incorporation in experiment [1] is 36%. Besides, the Inhibition in experiment [2] is 16%; in experiment [3], 87%.

The compound `CC1(C)OC2C(NCc3c[nH]c4nc(N)nc(O)c34)C=C[C@@H]2O1` (stereo partly specified) gave an Incorporation in experiment [1] of 55%. Also, the Inhibition is reported as under 10% in experiment [2] and 34% in experiment [3].

Turning to `Nc1nc(O)c2c(CNC(=O)CI)c[nH]c2n1`, the Incorporation in experiment [1] came to 0%. For the same compound, in experiment [4], testing at 1 µg/mL gave an inhibition of 49%. Also, the Inhibition in experiment [2] came out at 87%; in experiment [3], 89%.

Consider `Nc1nc(O)c2c(n1)N=CC2CNCC(=O)O` (stereo unspecified), for which the Incorporation in experiment [1] was found to be 48%. Besides, the Inhibition is under 10% in experiment [2] and 20% in experiment [3].

Consider `Nc1nc(S)c2c(CNC3C=C[C@H](O)C3O)c[nH]c2n1` (stereo partly specified), for which the Incorporation in experiment [1] was determined as 78%. Besides, the inhibition at 1 µg/mL in experiment [4] turned out to be 12%. The values for the Inhibition in experiment [2] and in experiment [3] were 54% and 88%, respectively.

For the compound `Nc1nc(O)c2c(CN3CCCCC3)c[nH]c2n1`, the Incorporation in experiment [1] stood at 65%. Also, the Inhibition in experiment [2] was under 10%; in experiment [3], 36%.

Turning to `Nc1nc(O)c2c(CNC3C=C[C@@H](O)C3O)c[nH]c2n1` (stereo partly specified), the Incorporation in experiment [1] amounted to 120%. The Inhibition is recorded as under 10% in experiment [2] and 23% in experiment [3].

Consider `Nc1nc(O)c2c(CNc3cccc(O)c3)c[nH]c2n1`, for which the Incorporation in experiment [1] turned out to be 33%. In experiment [4], 1 µg/mL produced 12% inhibition. Moreover, the Inhibition in experiment [2] is reported as 65%; in experiment [3], 79%.

`CCCNCc1c[nH]c2nc(N)nc(O)c12` came in with an Incorporation in experiment [1] of 94%. Further, the Inhibition in experiment [2] is on record as under 10%; in experiment [3], 43%.

As to `Nc1nc(O)c2c(CNC3CCCC3)c[nH]c2n1`, the Incorporation in experiment [1] was 80%. Besides, the Inhibition in experiment [2] came to 17%; in experiment [3], 74%.

Consider `Nc1nc(O)c2c(CNCc3ccc(I)cc3)c[nH]c2n1`, for which the Incorporation in experiment [1] is 98%. Moreover, the Inhibition in experiment [2] was 19%; in experiment [3] it was 77%.
